# Reference: publication PMC3906007, “Discovery of a Small Molecule Agonist of Phosphatidylinositol 3-Kinase p110α That Reactivates Latent HIV-1” (PLoS ONE, 2014)
# Like-named read-outs stand apart in the source and are kept apart here.
# Tests used:
# [1] = test system: latent HIV-1 in ACH2 and U1 cell lines; test: Latent HIV-1 reactivation, range across cell lines of virus latency; format: cell-based; conditions: Human immunodeficiency virus 1, ACH-2, read-out: EC50, reactivation of latent HIV-1 gene expression
# [2] = Cytotoxicity (MTT or CellTiter 96), 293T; format: cell-based; conditions: human, 293T cells; 24 hour incubation; mean ± SD, 3 replicates
# Method: (§1) Following a 24 hour incubation period, cell viability was measured using either the MTT (Roche Applied Science, Indianapolis, IN) or CellTiter 96 proliferation (Promega, WI) assay.
# [3] = test system: PI3K p110δ RNA; test: PI3K isoform RNA transcript levels in J89GFP cells, p110δ; format: cell-based; conditions: 5 µM
# [4] = test system: latent HIV-1 in U1 cell line; test: Latent HIV-1 reactivation in U1 cells (quantitative PCR of early and late viral RNA transcripts); format: cell-based
# Method: Three different cell lines of HIV-1 latency were used in this study. These included J89GFP, U1 and ACH-2 cells. The J89GFP cells were a kind gift from Dr. David Levy. The ACH-2 and U1 cells were obtained through the AIDS Research and Reference Reagent Program, Division of AIDS, NIAID, NIH: Dr. Thomas Folks contributor [19]–[21]. Reactivation of latent HIV-1 in the J89GFP cells was measured by quantifying the percentage of EGFP positive cells using a BD FACScan flow cytometer with BD FACSDiva software (BD Biosciences, CA), as described previously. Reactivation of latent HIV-1 in the ACH-2 and U 1 cells was assessed by quantitative analysis of initiated and elongated HIV-1 transcripts, as described previously. All 3 cell lines were maintained in RMPI 1640 medium supplemented with 10% FBS, 0.3 mg/mL L-glutamine, 100 U/mL penicillin, and 100 µg/mL streptomycin at 37°C in humidified air with 5% CO2.
# Figure 2 Latent HIV-1 reactivation activity of 57704, alone and in combination with other inducing agents, in the U1 and ACH2 cell line models of virus latency. HIV-1 expression was assessed by quantitative PCR analysis of early and late viral RNA transcripts. Where appropriate, TNFα was used as an activation control. (A) Latent HIV-1 reactivation of activity 57704 in the J89GFP cell line. […] (B) Latent HIV-1 reactivation activity of 57704 in the ACH2 cell line. (C) Latent HIV-1 reactivation of activity 57704 in the U1 cell line. (D) Graph of activation of latent HIV-1 early and late gene transcript expression in the ACH2 and U1 cell lines. EC50 values were determined in Sigma Plot by nonlinear regression, as described previously. (E) Latent HIV-1 reactivation of 5 µM 57704 in combination with 1 µM prostratin in the U1 cell line. […]. (G) Latent HIV-1 reactivation of 5 µM 57704 in combination with 2.5 µM DSF in the U1 cell line. (H) Latent HIV-1 reactivation of 5 µM 57704 in combination with 20 µM BIX-01294 in the U1 cell line. Data represent the mean ± standard deviation from 3 replicate experiments.
# [5] = test system: latent HIV-1 in CD8+-depleted MNC; format: cell-based; conditions: for Copies HIV RNA/mL: 7 days
# Excerpt: Healthy HIV-1 uninfected blood donors and HIV-1-infected donors on suppressive cART with plasma HIV-1 RNA less than 50 copies/mL for >2 year provided written informed consent and underwent a large volume phlebotomy (100–200 mLs). The protocol for blood donation was approved by the Institutional Review Board of the University of Pittsburgh (IRB #PRO10070203).
# (§2) CD8+T-cells were depleted from whole blood using RosetteSep Human CD8 Depletion Cocktail (StemCell Technologies, Vancouver, BC) according to manufacturer's instructions. 2×10^6 CD4^+ MNC cells were seeded in triplicate per treatment in 48-well plates and allowed to rest overnight. […] Activation controls were treated with CD3/CD28 Dynabeads (Life Technologies, Grand Island, NY). After 7 days of incubation, supernatants from triplicate wells were pooled, centrifuged (500 g×5 min), and stored at −80°C. HIV-1 RNA levels in supernatants were determined using the COBAS® AmpliPrep/COBAS® TaqMan® HIV-1 Test, v2.0 (Roche, Indianapolis, IN).
# [6] = molecular target: T1, HDAC2 (Homo sapiens, UniProt Q92769); test: biochemical; conditions: recombinant purified enzyme; read-out: 57704 IC50, HDAC2
# T1 construct: purchased BPS Bioscience (San Diego, CA)
# Method: The lysine deacetylase activity of HDACs 1, 2, 3, and 8 was assessed using the Fluorogenic HDAC Assay (BPS Bioscience, San Diego, CA) according to the manufacturer's instructions. […] All assays were carried out under steady-state conditions and the assay read-out was optimized for linearity both as a function of time and enzyme concentration. The formation of the fluorescent product was measured using a SpectraMax M2 Plate Reader (Molecular Devices, CA). The excitation and emission wavelengths were 360 nm and 450 nm, respectively.
# [7] = test system: PI3K p110α RNA; test: PI3K isoform RNA transcript levels in J89GFP cells, p110α; format: cell-based; conditions: 5 µM
# [8] = Cytotoxicity (MTT or CellTiter 96), CD8+-depleted MNC; format: cell-based; conditions: human, CD8+-depleted mononuclear cells (MNC) from whole blood; 24 hour incubation; mean of 2 replicates
# Method: as §1
# as §2, with “overnight. All wells were maintained in 81 nM efavirenz.” for “overnight.”
# T1 sequence (Q92769 whole entry): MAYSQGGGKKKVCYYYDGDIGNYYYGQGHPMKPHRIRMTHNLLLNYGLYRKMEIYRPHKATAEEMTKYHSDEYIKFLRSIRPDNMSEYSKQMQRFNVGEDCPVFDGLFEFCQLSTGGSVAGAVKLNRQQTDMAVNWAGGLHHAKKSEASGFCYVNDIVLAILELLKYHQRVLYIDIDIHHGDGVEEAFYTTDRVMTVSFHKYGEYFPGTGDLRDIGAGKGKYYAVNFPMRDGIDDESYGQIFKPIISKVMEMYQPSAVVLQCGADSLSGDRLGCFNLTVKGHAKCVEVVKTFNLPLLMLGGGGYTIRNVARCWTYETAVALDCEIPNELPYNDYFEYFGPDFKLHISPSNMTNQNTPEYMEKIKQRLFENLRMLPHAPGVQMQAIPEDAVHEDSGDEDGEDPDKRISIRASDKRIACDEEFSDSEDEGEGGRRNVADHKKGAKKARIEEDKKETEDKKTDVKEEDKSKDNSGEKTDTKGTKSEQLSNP
smiles,measurement,setting,value
"COc1cc2c(cc1OC)-c1c(OC)c(OC)cc3ccnc(c13)C2=O [Compound 57704, 1,2,9,10-tetramethoxy-7H-dibenzo[de,g]quinolin-7-one]",EC50,[1],5 to 9 µM
same,CC50 at 24 h,[2],106 ± 31.4 µM
same,Effect on PI3K p110δ RNA transcript levels / gene expression,[3],no effect
same,EC50,"[4]; Human immunodeficiency virus 1, read-out: EC50, activation of early HIV-1 gene transcript expression",8.2 µM
same,EC50,"[4]; Human immunodeficiency virus 1, read-out: EC50, activation of late HIV-1 gene transcript expression",4.9 µM
same,Latent HIV-1 reactivation activity in combination with prostratin,"[4]; U1, 5 µM 57704 + 1 µM prostratin",increased in an additive manner
same,Latent HIV-1 reactivation activity in combination with DSF,"[4]; U1, 5 µM 57704 + 2.5 µM DSF",increased in an additive manner
same,Latent HIV-1 reactivation activity in combination with SAHA,"[4]; U1, 5 µM 57704 + 5 µM SAHA",increased in an additive manner
same,Latent HIV-1 reactivation activity in combination with BIX-01294,"[4]; U1, 5 µM 57704 + 20 µM BIX-01294",increased in an additive manner
same,Increase of HIV-1 RNA in culture supernatants compared to the control,"[5]; 5 µM 57704, mean of 4 donors",~4 fold
same,CD8+-depleted blood mononuclear cell preparations (donors) with increased HIV-1 expression,[5]; 4 donors on suppressive cART tested,3 of 4
same,Copies HIV RNA/mL,"[5]; donor 1, 1 µM 57704, control 96",0 copies/mL
same,Copies HIV RNA/mL,"[5]; donor 1, 5 µM 57704, control 96",389 copies/mL
same,Copies HIV RNA/mL,"[5]; donor 2, 1 µM 57704, control 0",79 copies/mL
same,Copies HIV RNA/mL,"[5]; donor 2, 5 µM 57704, control 0",35 copies/mL
same,Copies HIV RNA/mL,"[5]; donor 3, 1 µM 57704, control 0",10 copies/mL
same,Copies HIV RNA/mL,"[5]; donor 3, 5 µM 57704, control 0",0 copies/mL
same,Copies HIV RNA/mL,"[5]; donor 4, 1 µM 57704, control 20",20 copies/mL
same,IC50,[6],> 50 µM
same,Effect on PI3K p110α RNA transcript levels,[7],no effect
same,CC50 at 24 h,[8],80 µM
